pKi: −log10 of the molar value.
Legend:
[1] = target: LRRK2 (Homo sapiens, UniProt Q5S007); assay: biochemical
[2] = tested on: hippocampal neurons derived from LRRK2 BAC transgenic mice; settings: dose-dependent manner

Chain of LRRK2 (Q5S007 whole entry): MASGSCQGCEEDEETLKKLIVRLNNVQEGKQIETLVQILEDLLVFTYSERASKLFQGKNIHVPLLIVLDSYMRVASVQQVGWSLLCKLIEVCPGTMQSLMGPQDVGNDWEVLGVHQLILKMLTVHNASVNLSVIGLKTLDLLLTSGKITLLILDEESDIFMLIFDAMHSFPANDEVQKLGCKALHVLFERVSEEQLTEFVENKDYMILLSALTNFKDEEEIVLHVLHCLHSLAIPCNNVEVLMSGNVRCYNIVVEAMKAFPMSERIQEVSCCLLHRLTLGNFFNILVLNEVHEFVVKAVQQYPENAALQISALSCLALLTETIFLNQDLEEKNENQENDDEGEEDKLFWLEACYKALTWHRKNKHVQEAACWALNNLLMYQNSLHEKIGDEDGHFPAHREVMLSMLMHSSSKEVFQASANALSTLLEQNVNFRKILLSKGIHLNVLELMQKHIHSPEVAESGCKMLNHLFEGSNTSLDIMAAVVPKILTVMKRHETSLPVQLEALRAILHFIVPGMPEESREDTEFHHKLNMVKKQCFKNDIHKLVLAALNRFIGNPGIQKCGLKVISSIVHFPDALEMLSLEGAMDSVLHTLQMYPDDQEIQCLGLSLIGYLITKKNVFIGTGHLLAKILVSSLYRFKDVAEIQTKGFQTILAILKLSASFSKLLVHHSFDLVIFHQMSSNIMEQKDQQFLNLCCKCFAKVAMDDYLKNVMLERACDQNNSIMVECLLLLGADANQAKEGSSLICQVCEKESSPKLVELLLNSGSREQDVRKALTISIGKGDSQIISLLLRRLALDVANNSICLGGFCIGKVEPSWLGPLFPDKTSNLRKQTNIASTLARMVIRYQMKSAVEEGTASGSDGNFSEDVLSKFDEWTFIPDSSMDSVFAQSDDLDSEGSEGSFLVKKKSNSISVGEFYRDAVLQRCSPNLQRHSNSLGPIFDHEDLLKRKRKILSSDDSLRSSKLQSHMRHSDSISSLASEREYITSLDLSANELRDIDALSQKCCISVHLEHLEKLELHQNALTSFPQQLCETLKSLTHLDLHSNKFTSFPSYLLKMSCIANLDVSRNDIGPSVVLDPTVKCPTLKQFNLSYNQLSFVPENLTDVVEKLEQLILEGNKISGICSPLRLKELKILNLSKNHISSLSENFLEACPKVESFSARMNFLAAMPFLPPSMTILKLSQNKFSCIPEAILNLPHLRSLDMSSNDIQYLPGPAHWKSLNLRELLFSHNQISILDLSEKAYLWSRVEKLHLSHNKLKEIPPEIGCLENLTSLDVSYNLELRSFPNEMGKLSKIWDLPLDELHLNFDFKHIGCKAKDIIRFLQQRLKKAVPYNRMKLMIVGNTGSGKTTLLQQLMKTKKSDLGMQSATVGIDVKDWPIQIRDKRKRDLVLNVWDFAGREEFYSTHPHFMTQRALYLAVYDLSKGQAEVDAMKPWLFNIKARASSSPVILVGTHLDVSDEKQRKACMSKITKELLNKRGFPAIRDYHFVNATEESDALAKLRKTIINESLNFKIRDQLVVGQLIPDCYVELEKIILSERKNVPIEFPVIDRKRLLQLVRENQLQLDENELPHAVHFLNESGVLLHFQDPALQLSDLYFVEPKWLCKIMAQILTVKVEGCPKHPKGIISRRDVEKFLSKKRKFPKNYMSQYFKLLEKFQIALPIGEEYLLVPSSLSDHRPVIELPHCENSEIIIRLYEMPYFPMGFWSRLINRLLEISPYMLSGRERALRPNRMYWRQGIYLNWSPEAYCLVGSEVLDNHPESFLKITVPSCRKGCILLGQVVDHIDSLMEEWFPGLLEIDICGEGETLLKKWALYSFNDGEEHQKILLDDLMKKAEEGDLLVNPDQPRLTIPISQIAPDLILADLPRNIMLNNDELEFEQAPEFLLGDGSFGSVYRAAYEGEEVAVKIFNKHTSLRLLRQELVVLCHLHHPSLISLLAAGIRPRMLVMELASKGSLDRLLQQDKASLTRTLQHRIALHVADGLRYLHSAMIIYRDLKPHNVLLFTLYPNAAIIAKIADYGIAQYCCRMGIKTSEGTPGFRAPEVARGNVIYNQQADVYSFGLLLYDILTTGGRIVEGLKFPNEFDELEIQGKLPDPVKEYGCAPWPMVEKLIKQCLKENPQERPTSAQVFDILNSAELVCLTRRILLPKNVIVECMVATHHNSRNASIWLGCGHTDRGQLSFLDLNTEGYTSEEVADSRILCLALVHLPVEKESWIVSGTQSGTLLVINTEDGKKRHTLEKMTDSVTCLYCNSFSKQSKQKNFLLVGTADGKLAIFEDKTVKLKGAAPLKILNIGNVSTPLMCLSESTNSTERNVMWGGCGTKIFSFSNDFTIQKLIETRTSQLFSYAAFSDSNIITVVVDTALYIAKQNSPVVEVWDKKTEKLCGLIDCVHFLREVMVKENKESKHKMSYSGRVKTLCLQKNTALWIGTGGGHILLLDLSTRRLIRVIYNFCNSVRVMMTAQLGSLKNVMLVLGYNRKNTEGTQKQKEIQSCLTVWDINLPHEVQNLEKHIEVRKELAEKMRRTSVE

pKi [1]: ~8.40
SMILES: CNc1nc(Nc2ccc(C(=O)N3CCOCC3)cc2OC)ncc1C(F)(F)F [G1023, [3-methoxy-4-(4-methylamino-5-trifluoromethyl-pyrimidin-2-ylamino)-phenyl]-morpholin-4-yl-methanone]
neurite outgrowth defect (total neurite length) [2]: reversed neurite outgrowth defect

Reference: patent US20140228384A1, “ASSAYS AND BIOMARKERS FOR LRRK2” (Genentech, Inc., priority 2011, published 2014)
